Results published in patent publication US6110907A, “Synthesis of platinum complexes and uses thereof” (Dalian Institute of Chemical Physics, Chinese Academy of …, priority 1998, dated 2000).
Read-outs that look alike come from different tables or passages of the source.

Experiments:
kidney = test: 5-Day Parenteral Acute Toxicity Trial, kidney histopathology; assay type: in vivo, ICR mice; settings: 1/12 LD10/day for 5 days, i.p., per animal
Procedure: (§1) Conditions: Temperature: 22° C.±3° C.; Relative humidity: 30-70 T; Light: 12:12. Animals were housed in twos or threes depending on group numbers.
(§2) Histopathology of liver and kidney were examined for each animal.

[1] = background statement; cited from earlier work
[2] = cited from earlier work
liver = test: 5-Day Parenteral Acute Toxicity Trial, liver histopathology; assay type: in vivo, ICR mice; settings: 1/12 LD10/day for 5 days, i.p., per animal
Procedure: as §1, §2

ICR mice [3] = test: In vivo toxicity, LD50 (second series); settings: male, intraperitoneal
Procedure: Animals: ICR mice, male, 30 g, 10 animals per test/control group.
Dose: Test/control drug were dissolved in normal saline. Four doses, each increasing by 10-20% were injected intraperitoneally into mice. 10 mice were used for each dose point.

CNE-1 = test: In vitro antitumor activity, MTT assay, CNE-1; assay type: cell-based, human; settings: CNE-1, 48 hours
Procedure: (§3) Drugs: Drugs to be tested were dissolved in complete medium at twice the highest concentration to be used, followed by filter (0.22 μm) sterilization. A series of log dilutions were made of each drug solution using complete medium and stored at r.t. until use.
(§4) Cells: L1210, H-522 (human lung), HT-29 (human colon), Hela, CC3 (human cervix) were obtained from the American Type Culture Collection (ATCC). CNE-1 and CNE-2 (human nasopharyngeal) were obtained from The Hong Kong Cancer Institute, The Chinese University of Hong Kong.
(§5) In vitro drug exposure: Trypsinised cells were adjusted to a concentration of 3×10^4 cells/ml in complete medium and for each drug to be tested, 0.1 ml of the cell suspension was added to each of 48 wells of a 96-well microculture plate. The plate was then incubated at standard conditions for 24 hours in order to allow the cells to attach to the bottom of the well. To each well of the control cultures, 0.1 ml of complete medium was added. […]
(§6) MTT assay: The MTT (tetrazolium) assay was used to determine the growth-inhibitory effects of different drugs. […] The amount of reduced MTT was determined by spectrophotometric means (540 nm).
(§7) Data analysis: The mean OD for all 48 control wells was determined. For each concentration of each drug, the mean OD of the 6 wells was determined and the "Percent of Control" values were determined and plotted. […]

CNE-2 = test: In vitro antitumor activity, MTT assay, CNE-2; assay type: cell-based, human; settings: CNE-2, 48 hours
Procedure: as §3, §4, §5, §6, §7

HT29 = test: In vitro antitumor activity, MTT assay, HT-29; assay type: cell-based, human; settings: HT29, 48 hours
Procedure: as §3, §4, §5, §6, §7

H522 = test: In vitro antitumor activity, MTT assay, H522; assay type: cell-based, human; settings: H522, 48 hours
Procedure: as §3, §4, §5, §6, §7

L1210 = test: In vitro antitumor activity, MTT assay, L1210; assay type: cell-based, mouse; settings: L1210, 48 hours
Procedure: as §3, §4, §5, §6, §7

Hela = test: In vitro antitumor activity, MTT assay, Hela; assay type: cell-based, human; settings: 48 hours
Procedure: as §3, §4, §5, §6, §7

ICR mice [4] = test: Toxicity testing, LD50 (Example 14); assay type: in vivo; settings: in 0.9% NaCl, observed for 6 days
Procedure: The toxicity tests used ICR mice (30-40 g), each group containing 12-13 mice. […] The test and control compounds were dissolved in 0.9% NaCl to an appropriate concentration.

CC3 = test: In vitro antitumor activity, MTT assay, CC3; assay type: cell-based, human; settings: CC3, 48 hours
Procedure: as §3, §4, §5, §6, §7

## C[C@@]12C(=O)OC(=O)[C@]1(C)[C@H]1CC[C@@H]2O1 [Cantharidin, cantharidin]
kidney; female
  KIDNEY Normal: √
kidney; male
  KIDNEY Normal: √
[1]
  LD50: 1 mg/kg
[2]; background statement
  side effects: nausea and vomiting, dysphagia, hematemesis, gross hematuria and dysuria
[2]; background statement, listed as cantharidin
  side effects: severe side-effects such as nausea, vomiting and diarrhoea
liver; female
  LIVER Normal: √
liver; male
  LIVER Normal: √

## N.N.O=C([O-])C1(C(=O)[O-])CCC1.[Pt+2] [Carboplatin, carboplatin]
kidney; female
  KIDNEY Normal: √
kidney; male
  KIDNEY Normal: √
ICR mice [3]
  LD50: 203.20 mg/kg
CNE-1
  IC50: 174 µM
CNE-2
  IC50: 126 µM
HT29
  IC50: 734 µM
H522
  IC50: 287 µM
L1210
  IC50: 48.8 µM
Hela
  IC50: 244 µM
ICR mice [4]
  LD50: 190 mg/kg
CC3
  IC50: 205 µM
[2]; in vivo
  side effects: strongly irritates the gastrointestinal tract
pH 6
  Solubility in water: 10000 µg/mL
water
  Solubility: ~10000 µg/mL
liver; female
  LIVER Normal: √
liver; male
  LIVER Normal: √

## N.N.[Cl][Pt][Cl] [Cisplatin, cisplatin]
CNE-1
  IC50: 6.36 µM
CNE-2
  IC50: 6.04 µM
HT29
  IC50: 38.3 µM
H522
  IC50: 12.1 µM
L1210
  IC50: 1.63 µM
Hela
  IC50: 8.56 µM
CC3
  IC50: 6.25 µM

## O=C(O)C1C2CCC(O2)C1C(=O)O (centres unmarked) [corresponding dicarboxylic acid]
[1]
  LD50: 14 mg/kg

## O=C1OC(=O)C2C3CCC(O3)C12 (centres unmarked) [demethyl cantharidin]
[1]
  LD50: 4 mg/kg
